Assay results reported in publication PMC3201904 (Phytochemistry, 2011).

Target: GABA A receptor α1β2γ2S (Rattus norvegicus, UniProt P18508+P62813+P63138)
Experiment: two-microelectrode voltage clamp, Xenopus oocytes, potentiation of GABA current
Type: cell-based

Chain of GABA A receptor α1β2γ2S (P62813 28-455): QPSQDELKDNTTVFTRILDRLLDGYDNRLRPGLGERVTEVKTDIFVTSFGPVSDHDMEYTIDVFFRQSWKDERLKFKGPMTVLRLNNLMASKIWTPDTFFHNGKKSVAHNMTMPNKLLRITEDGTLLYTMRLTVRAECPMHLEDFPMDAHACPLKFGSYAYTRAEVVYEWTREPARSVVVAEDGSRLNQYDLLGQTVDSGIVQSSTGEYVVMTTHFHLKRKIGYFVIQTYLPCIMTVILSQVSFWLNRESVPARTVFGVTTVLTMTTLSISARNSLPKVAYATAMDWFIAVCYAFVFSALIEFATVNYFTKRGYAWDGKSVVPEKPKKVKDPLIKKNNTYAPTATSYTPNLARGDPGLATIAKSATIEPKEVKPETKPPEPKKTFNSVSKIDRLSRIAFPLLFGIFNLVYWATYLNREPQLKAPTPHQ
Chain of GABA A receptor α1β2γ2S (P63138 26-474): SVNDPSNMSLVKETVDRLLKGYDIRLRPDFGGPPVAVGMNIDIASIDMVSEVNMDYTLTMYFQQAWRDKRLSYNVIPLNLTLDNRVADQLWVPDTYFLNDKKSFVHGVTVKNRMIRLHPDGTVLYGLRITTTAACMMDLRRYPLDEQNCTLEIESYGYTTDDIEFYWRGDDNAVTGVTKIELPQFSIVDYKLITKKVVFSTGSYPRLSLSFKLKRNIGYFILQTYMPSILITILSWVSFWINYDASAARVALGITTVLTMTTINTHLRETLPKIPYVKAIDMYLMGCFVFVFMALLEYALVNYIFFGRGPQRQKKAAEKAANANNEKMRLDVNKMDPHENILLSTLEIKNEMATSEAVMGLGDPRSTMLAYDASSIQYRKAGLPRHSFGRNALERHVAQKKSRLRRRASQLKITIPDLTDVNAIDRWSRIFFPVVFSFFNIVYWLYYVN
Chain of GABA A receptor α1β2γ2S (P18508 39-466): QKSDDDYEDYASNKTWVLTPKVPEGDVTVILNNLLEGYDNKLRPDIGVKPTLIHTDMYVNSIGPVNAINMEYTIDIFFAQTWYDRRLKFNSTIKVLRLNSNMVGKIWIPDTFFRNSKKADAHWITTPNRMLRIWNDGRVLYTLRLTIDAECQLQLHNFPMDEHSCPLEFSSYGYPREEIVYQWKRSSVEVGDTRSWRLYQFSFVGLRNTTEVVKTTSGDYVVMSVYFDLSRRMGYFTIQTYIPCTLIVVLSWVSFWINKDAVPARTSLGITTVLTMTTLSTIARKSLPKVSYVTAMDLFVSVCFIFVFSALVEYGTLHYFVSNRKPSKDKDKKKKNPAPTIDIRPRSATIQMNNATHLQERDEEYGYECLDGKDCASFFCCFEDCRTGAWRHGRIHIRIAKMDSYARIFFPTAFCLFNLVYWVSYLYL

EC50 [µM]	SMILES
31.5 ± 7.1	COc1cc(C[C@H](C)[C@H](C)Cc2ccc3c(c2)OCO3)ccc1O [compound 11, anwulignan]
118 ± 29.9	CC1(C)CCC[C@]1(C)C1=CC=C(C(=O)O)CC1 [compound 12, (−)-5,6-dihydrocuparenic acid]
70.6 ± 12.2	C=CC(=C)CC[C@@H](OC(=O)/C=C/c1ccccc1)C(C)(C)O [compound 7, (+)-6-cinnamoyl-6,7-dihydro-7-myrceneol]
79.2 ± 19.4	COc1cc(C[C@@H](C)[C@@H](C)Cc2ccc(O)c(OC)c2)ccc1O [compound 5, dihydroguaiaretic acid]
54.6 ± 28.8	COc1cc(C[C@H](C)[C@H](C)Cc2ccc(OC)c(OC)c2)ccc1O [compound 8, mono-methyl dihydroguaiaretic acid]
